This passage reports inhibition and Complex formation results from ChEMBL document CHEMBL1128882, “Novel lignan derivatives as selective inhibitors of DNA topoisomerase II” (1995).

For assay [1], the target named is DNA topoisomerase 2-beta (Homo sapiens) (UniProt Q02880). Briefly: In vitro inhibition of DNA topoisomerase II activity (DNA unknotting) at a concentration of 50 uM.
Assay [2] addresses T1, DNA topoisomerase 1 (Homo sapiens) (UniProt P11387).
T1 sequence (whole entry): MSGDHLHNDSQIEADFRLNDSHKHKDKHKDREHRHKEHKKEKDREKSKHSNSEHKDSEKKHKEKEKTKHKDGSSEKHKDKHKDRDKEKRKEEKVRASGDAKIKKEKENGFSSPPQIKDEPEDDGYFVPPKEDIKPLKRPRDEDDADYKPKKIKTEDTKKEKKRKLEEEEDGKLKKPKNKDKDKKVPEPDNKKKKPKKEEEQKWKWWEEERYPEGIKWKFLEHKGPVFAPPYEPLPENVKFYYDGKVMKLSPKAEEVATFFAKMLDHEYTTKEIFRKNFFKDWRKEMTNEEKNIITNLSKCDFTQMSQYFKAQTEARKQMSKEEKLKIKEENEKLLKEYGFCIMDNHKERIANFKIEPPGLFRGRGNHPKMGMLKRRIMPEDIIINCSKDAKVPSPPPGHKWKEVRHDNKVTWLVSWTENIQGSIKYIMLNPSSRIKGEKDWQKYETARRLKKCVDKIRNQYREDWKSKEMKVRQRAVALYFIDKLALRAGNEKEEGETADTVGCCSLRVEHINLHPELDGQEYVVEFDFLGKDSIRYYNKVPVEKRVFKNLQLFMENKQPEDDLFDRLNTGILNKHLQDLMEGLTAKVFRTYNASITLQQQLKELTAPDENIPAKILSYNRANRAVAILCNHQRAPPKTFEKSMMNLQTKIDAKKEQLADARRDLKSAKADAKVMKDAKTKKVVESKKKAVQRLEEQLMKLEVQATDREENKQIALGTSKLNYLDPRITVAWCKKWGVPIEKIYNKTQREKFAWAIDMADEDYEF
Briefly: In vitro inhibition of DNA topoisomerase I activity (ATP-independent DNA relaxation) at a concentration of 50 uM.

In assay [3] the test system is KB. Description: In vitro cellular protein-DNA complex formation at a concentration of 50 uM. Format: functional, Homo sapiens.
The target of assay [4] is T1, DNA topoisomerase 1 (Homo sapiens). Briefly: In vitro inhibition of DNA topoisomerase I activity (ATP-independent DNA relaxation) at a concentration of 50 uM; no activity.
For assay [5], the system named is KB. Briefly: In vitro topoisomerase II -DNA complex formation at a concentration of 50 uM. It counts as functional, Homo sapiens.
Assay [6] concerns KB. Briefly: In vitro topoisomerase II -DNA complex formation at a concentration of 10 uM; no activity. The conditions noted are these: Homo sapiens. Format: functional, cell-based.
The subject of assay [7] is KB. Description: In vitro topoisomerase II -DNA complex formation at a concentration of 1 uM; no activity. It counts as functional, cell-based. Particulars: Homo sapiens.
Assay [8] concerns KB. Briefly: In vitro topoisomerase II -DNA complex formation at a concentration of 50 uM; no activity. Format: functional, cell-based. The conditions noted are these: Homo sapiens.
Assay [9] relates to KB. Briefly: In vitro cellular protein-DNA complex formation at a concentration of 50 uM; no activity. The conditions noted are these: Homo sapiens. Format: functional, cell-based.
Assay [10] deals with KB. Briefly: In vitro topoisomerase II -DNA complex formation at a concentration of 100 uM; no activity. It counts as functional, cell-based. Particulars: Homo sapiens.

Structures are written as SMILES. Active and inactive are the calls of the source. The calls are words filed in the database; no cut-off is given here.

DNA topoisomerase 2-beta (Homo sapiens), sequence (Q02880 whole entry): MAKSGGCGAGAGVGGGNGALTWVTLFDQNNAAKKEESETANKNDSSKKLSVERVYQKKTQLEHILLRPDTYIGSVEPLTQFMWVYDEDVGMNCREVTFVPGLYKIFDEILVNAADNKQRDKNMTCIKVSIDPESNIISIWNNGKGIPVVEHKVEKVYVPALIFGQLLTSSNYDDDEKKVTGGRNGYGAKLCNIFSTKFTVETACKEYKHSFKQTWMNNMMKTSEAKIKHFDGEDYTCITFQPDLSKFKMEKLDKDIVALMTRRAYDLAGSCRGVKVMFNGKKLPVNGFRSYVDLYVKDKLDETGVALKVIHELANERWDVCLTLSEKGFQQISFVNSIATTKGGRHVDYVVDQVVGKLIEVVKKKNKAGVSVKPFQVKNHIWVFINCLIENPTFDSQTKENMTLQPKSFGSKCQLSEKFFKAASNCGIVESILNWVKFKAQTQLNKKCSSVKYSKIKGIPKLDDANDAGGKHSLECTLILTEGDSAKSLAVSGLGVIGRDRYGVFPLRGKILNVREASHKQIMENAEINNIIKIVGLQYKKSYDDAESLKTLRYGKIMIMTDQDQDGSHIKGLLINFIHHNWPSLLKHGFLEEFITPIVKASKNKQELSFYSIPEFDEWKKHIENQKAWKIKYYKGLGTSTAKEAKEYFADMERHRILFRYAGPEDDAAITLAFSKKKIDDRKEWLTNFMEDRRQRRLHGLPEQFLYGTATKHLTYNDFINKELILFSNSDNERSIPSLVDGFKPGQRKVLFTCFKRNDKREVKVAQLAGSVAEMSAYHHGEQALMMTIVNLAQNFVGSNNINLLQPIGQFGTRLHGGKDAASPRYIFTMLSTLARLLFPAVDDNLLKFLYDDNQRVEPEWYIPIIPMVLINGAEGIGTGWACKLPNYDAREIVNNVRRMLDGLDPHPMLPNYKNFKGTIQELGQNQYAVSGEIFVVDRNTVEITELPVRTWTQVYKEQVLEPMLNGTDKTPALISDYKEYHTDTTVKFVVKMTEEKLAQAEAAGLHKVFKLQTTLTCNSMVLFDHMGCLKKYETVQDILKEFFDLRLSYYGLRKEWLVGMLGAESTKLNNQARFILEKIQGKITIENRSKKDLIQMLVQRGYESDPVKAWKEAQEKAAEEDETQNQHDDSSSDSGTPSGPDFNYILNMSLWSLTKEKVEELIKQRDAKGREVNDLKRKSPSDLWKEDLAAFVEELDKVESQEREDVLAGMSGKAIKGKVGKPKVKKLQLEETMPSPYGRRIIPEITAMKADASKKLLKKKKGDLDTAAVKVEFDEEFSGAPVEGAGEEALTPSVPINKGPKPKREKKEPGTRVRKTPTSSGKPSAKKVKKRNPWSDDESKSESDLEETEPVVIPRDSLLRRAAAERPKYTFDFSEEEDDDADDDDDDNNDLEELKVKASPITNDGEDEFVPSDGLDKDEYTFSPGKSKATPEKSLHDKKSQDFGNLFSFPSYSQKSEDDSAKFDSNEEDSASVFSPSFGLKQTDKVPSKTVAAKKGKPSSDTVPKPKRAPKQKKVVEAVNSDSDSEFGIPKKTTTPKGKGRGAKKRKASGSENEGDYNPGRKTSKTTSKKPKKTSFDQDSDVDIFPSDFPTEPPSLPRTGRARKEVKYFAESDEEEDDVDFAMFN

For `O=C(O)C1=Cc2cc(O)c(O)cc2[C@@H](c2ccc(O)c(O)c2)[C@@H]1C(=O)O`, the inhibition in [1] and in [2] was 100% in each case.
In the case of `COc1cc([C@@H]2c3cc4c(cc3[C@@H](O[C@@H]3O[C@@H]5CO[C@@H](C)O[C@H]5[C@H](O)[C@H]3O)[C@H]3COC(=O)[C@H]23)OCO4)cc(OC)c1O` [ETOPOSIDE], the Complex formation with KB [3] and in the assay on KB [5] was 100% throughout. In addition, the inhibition entry in assay [4] is “inactive”.
In assay [1], `O=C(O[C@@H]1C[C@](O)(C(=O)O)C[C@@H](O)[C@H]1O)C1=Cc2cc(O)c(O)cc2[C@H](c2ccc(O)c(O)c2)[C@H]1C(=O)O[C@@H]1C[C@](O)(C(=O)O)C[C@@H](O)[C@H]1O` yielded an inhibition of 100%. Also, the Complex formation entry with KB [6], in the assay with KB [7], with KB [8], in the assay with KB [9] and in the assay on KB [10] was “No activity” each time. Besides, the inhibition entry in assay [4] is “inactive”.
In [1], `COC(=O)C1=Cc2cc(O)c(O)cc2[C@@H](c2ccc(O)c(O)c2)[C@@H]1C(=O)OC` showed an inhibition of 100%. Moreover, in assay [4], the inhibition result is “inactive”. Moreover, the Complex formation entry in the assay on KB [8] and in the assay on KB [9] was “No activity” each time.
In the case of `O=C1OC(c2ccc(O)c(O)c2)C2C(=O)OC(c3ccc(O)c(O)c3)C12` (stereo not drawn), the inhibition in assay [1] and in assay [2] was 100% each time.
As for `O=C(O[C@H](Cc1ccc(O)c(O)c1)C(=O)O)C1=Cc2cc(O)c(O)cc2[C@H](c2ccc(O)c(O)c2)[C@H]1C(=O)O[C@H](Cc1ccc(O)c(O)c1)C(=O)O`, the inhibition in assay [1] and in assay [2] was 100% in each case. Moreover, the Complex formation result with KB [8] and with KB [9] was “No activity” in each case.
On to `O=C(O[C@@H]1C[C@](O)(C(=O)O)C[C@@H](O)[C@H]1O)C1=Cc2cc(O)c(O)cc2[C@@H](c2ccc(O)c(O)c2)[C@@H]1C(=O)O[C@@H]1C[C@](O)(C(=O)O)C[C@@H](O)[C@H]1O`, for which the inhibition in assay [1] is 100%. In addition, the Complex formation result in the assay with KB [6], in the assay with KB [7], with KB [8], in the assay with KB [9] and in the assay on KB [10] was “No activity” throughout. For the same molecule, the inhibition result in assay [4] was “inactive”.
Regarding `O=C(O[C@H](Cc1ccc(O)c(O)c1)C(=O)O)C1=Cc2cc(O)c(O)cc2[C@@H](c2ccc(O)c(O)c2)[C@@H]1C(=O)O[C@H](Cc1ccc(O)c(O)c1)C(=O)O`, the inhibition in assay [1] and in assay [2] was 100% in each case. Also, the Complex formation entry in the assay with KB [8] and with KB [9] was “No activity” each time.
